Experimental data reported in patent US20150291593A1, “NOVEL HETEROARYL AND HETEROCYCLE COMPOUNDS, COMPOSITIONS AND METHODS” (HUTCHISON MEDIPHARMA LIMITED, priority 2012, published 2015).

Columns and labels:
Assay type in all cases: biochemical
p110γ = target: T1, p110γ (Homo sapiens, UniProt P48736); experiment: Transcreener KINASE Assay, kinase inhibition of p110γ; settings: for IC50: read-out: PI3Kγ IC50
T1 construct: purchased Invitrogen
Procedure: PI3K kinases including p110α/p85α, p110δ/p85α and p110γ are purchased from Invitrogen, and p110β/p85α is from Millipore. Primary screening data and IC50 values are measured using Transcreener™ KINASE Assay (Bellbrook, Catalog #3003-10K). […] It is a universal, homogenous, high throughput screening (HTS) technology using a far-red, competitive fluorescence polarization immunoassay based on the detection of ADP to monitor the activity of enzymes that catalyze group transfer reactions. Briefly, the Transcreener KINASE Assay is designed as a simple two-part, endpoint assay. […] The plate is sealed and incubated for 80 min at room temperature. Next, 25 ul ADP detection mix is added per well. The plate is sealed again and incubated for 60 min at room temperature, and then measure fluorescence polarization by Tecan Infinite F500 Reader. Data is analyzed and IC50s are generated using the add-in software for Microsoft Excel, Xlfit™ (version 2.0).

p110δ/p85α = target: T2, p110δ/p85α (Homo sapiens, UniProt O00329); experiment: Transcreener KINASE Assay, kinase inhibition of p110δ/p85α; settings: for IC50: read-out: PI3Kδ IC50
T2 construct: purchased Invitrogen
Procedure: (§1) PI3K kinases including p110α/p85α, p110δ/p85α and p110γ are purchased from Invitrogen, and p110β/p85α is from Millipore.
(§2) Primary screening data and IC50 values are measured using Transcreener™ KINASE Assay (Bellbrook, Catalog #3003-10K). […] It is a universal, homogenous, high throughput screening (HTS) technology using a far-red, competitive fluorescence polarization immunoassay based on the detection of ADP to monitor the activity of enzymes that catalyze group transfer reactions. Briefly, the Transcreener KINASE Assay is designed as a simple two-part, endpoint assay.
(§3) In the first step, the 25 ul kinase reaction is performed by preparing a reaction mixture containing 5 ul test compound (2% DMSO final concentration), 10 ul kinase, buffer (50 mM HEPES, 100 mM NaCl, 1 mM EGTA, 0.03% CHAPS, 3 mM MgCl2, and freshly supplemented 1 mM DTT), and 10 ul 30 uM PIP2/10 uM ATP. The plate is sealed and incubated for 80 min at room temperature. Next, 25 ul ADP detection mix is added per well. The plate is sealed again and incubated for 60 min at room temperature, and then measure fluorescence polarization by Tecan Infinite F500 Reader.
(§4) Data is analyzed and IC50s are generated using the add-in software for Microsoft Excel, Xlfit™ (version 2.0). IH %=(ADP amount under 2% DMSO-ADP amount under test compound)/ADP amount under 2% DMSO.

p110β/p85α = target: T3, p110β/p85α (Homo sapiens, UniProt P42338); experiment: Transcreener KINASE Assay, kinase inhibition of p110β/p85α; settings: for IC50: read-out: PI3Kβ IC50
T3 construct: purchased Millipore
Procedure: as §1, §2, §3, §4

T3 sequence (P42338 whole entry, species assumed): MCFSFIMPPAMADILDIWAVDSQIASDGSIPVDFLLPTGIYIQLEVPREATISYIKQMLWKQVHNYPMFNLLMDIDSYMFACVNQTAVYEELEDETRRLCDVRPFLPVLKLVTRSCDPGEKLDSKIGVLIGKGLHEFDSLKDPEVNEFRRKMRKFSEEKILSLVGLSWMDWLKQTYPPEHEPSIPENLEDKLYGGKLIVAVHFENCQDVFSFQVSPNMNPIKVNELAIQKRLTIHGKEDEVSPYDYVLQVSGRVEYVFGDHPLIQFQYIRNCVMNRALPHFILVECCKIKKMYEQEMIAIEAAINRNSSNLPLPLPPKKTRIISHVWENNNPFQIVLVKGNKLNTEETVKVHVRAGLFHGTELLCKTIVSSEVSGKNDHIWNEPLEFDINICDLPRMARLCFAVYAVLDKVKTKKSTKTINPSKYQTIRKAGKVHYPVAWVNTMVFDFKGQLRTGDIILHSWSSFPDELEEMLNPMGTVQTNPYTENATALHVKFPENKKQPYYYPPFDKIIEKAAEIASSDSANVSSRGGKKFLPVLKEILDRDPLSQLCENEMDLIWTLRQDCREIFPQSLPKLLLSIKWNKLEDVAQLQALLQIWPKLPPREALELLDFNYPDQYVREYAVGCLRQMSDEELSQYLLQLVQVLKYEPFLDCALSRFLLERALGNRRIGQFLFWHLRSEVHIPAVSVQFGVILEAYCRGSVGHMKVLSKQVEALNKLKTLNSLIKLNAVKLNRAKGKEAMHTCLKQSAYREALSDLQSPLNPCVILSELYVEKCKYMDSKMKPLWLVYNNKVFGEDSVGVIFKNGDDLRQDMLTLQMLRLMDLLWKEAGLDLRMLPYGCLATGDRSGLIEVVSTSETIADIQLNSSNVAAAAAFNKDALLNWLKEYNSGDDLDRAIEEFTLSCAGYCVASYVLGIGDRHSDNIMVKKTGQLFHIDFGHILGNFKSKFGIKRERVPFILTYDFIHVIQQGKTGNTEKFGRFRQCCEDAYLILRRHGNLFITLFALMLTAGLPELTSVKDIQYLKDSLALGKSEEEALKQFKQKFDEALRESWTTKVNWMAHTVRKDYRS
T3 sequence (P27986 whole entry partner, species assumed): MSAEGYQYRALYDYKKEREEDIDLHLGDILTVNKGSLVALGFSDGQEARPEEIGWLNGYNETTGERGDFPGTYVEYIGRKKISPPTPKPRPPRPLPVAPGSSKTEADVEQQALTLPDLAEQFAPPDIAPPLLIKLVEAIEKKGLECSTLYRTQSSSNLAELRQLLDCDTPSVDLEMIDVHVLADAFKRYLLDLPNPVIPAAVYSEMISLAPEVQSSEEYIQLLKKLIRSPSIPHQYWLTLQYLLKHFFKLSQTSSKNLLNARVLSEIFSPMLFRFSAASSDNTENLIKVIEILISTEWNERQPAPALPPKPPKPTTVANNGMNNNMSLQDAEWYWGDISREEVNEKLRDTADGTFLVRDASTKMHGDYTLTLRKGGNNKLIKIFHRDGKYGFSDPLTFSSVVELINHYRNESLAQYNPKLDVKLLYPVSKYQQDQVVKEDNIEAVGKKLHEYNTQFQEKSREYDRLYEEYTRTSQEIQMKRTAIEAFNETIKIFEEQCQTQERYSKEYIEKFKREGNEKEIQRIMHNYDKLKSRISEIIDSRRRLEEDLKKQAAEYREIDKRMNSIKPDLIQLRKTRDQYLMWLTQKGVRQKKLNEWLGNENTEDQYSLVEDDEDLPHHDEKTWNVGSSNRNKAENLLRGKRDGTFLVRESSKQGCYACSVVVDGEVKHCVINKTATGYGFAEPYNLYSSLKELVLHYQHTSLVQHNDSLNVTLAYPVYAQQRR
T2 sequence (O00329 whole entry, species assumed): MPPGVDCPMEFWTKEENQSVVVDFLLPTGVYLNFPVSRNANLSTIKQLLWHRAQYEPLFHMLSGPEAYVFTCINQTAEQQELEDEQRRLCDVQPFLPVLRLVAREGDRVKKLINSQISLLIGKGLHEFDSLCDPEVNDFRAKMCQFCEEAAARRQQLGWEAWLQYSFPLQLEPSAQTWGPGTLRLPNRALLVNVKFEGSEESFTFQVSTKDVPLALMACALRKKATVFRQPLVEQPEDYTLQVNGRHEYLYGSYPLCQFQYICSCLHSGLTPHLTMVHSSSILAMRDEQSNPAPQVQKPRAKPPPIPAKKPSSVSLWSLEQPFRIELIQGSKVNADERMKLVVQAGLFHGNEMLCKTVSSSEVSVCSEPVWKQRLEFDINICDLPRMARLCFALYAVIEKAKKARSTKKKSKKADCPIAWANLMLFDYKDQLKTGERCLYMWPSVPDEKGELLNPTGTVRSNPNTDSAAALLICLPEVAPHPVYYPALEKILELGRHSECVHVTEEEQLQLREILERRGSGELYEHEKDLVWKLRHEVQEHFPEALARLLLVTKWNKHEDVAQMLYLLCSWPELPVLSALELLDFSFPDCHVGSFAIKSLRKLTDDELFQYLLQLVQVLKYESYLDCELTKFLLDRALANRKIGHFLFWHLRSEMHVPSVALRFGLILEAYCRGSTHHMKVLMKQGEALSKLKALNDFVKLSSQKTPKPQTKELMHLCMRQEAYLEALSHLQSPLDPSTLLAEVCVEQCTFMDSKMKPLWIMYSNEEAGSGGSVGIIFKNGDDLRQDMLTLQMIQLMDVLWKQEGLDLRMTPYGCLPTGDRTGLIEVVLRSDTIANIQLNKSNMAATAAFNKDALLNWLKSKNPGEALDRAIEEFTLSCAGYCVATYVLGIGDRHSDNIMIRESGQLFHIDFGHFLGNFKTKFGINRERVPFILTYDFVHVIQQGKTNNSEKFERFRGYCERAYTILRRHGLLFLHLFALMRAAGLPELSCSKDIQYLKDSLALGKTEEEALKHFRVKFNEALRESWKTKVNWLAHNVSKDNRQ
T2 sequence (P27986 whole entry partner, species assumed): as the sequence (P27986 whole entry partner, species assumed) above
T1 sequence (P48736 whole entry, species assumed): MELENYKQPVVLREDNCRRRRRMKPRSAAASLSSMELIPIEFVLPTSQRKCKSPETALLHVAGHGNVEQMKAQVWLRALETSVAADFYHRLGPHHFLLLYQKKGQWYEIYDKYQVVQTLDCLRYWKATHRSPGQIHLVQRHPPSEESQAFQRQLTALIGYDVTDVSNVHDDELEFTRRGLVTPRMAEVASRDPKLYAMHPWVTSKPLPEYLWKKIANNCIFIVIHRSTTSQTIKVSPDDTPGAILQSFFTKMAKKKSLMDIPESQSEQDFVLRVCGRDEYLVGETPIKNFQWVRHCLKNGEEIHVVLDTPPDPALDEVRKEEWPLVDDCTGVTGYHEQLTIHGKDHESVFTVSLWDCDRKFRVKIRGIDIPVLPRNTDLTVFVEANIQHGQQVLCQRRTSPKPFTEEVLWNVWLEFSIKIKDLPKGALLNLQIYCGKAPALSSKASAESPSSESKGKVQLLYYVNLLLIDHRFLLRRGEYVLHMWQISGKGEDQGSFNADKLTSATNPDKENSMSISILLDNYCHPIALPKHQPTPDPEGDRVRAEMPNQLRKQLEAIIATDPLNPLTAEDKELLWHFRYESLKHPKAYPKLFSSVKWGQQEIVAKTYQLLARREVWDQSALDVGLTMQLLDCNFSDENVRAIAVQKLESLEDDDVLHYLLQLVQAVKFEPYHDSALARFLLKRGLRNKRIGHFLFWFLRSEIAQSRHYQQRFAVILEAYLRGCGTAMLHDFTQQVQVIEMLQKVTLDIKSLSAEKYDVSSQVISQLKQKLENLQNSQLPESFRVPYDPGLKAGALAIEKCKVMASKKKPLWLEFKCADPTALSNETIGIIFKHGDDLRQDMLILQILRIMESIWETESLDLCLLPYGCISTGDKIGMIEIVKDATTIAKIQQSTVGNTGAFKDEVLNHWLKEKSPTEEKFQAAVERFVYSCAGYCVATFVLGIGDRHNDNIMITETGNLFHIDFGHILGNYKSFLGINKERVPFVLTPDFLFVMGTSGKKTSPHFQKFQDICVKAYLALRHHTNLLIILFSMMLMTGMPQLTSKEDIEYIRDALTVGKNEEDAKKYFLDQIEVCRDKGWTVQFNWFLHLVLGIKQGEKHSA

PI3Kγ IH % @ 1 uM (p110γ) [%]	IC50 (p110γ) [nM]	PI3Kδ IH % @ 1 uM (p110δ/p85α) [%]	PI3Kβ IH % @ 1 uM (p110β/p85α) [%]	IC50 (p110δ/p85α) [nM]	IC50 (p110β/p85α) [nM]	Structure (SMILES)
>100	82	97.5	68.1	6	–	O=c1c2c(Cl)ccn2nc([C@@H]2CCCN2c2ncnc3[nH]cnc23)n1CC1CC1 [Compound 256]
20.4	–	85.0	32.8	127	–	O=c1c2c(Cl)ccn2nc([C@@H]2CC(F)(F)CN2c2ncnc3[nH]cnc23)n1Cc1ccccn1 [Compound 159]
–	361	–	–	27	> 1000	N#Cc1cnc(N)nc1N1CCC1c1nn2ccc(Cl)c2c(=O)n1CC1CC1 (stereo not shown) [Compound 373]
38.7	–	72.8	23.9	–	–	N#Cc1n[nH]c2ncnc(N3CCC[C@H]3c3nn4cccc4c(=O)n3-c3ccccc3)c12 [Compound 110, (S)-4-(2-(4-oxo-3-phenyl-3,4-dihydropyrrolo[1,2-f][1,2,4]triazin-2-yl)pyrrolidin-1-yl)-1H-pyrazolo[3,4-d]pyrimidine-3-carbonitrile]
–	12	–	–	2	50	C[C@H]1CCN(c2ncnc3[nH]cnc23)C1c1nn2ccc(Cl)c2c(=O)n1-c1ccccc1 (stereo partly shown) [Compound 234]
96.4	231	94.6	34.5	26	–	N#Cc1ccn2nc([C@@H]3CCCN3c3ncnc4[nH]cnc34)n(-c3ccccc3)c(=O)c12 [Compound 112]
–	13	–	–	4	26	C[C@H]1CCN(c2ncnc3[nH]cc(C#N)c23)C1c1nn2ccc(Cl)c2c(=O)n1-c1ccccc1 (stereo partly shown) [Compound 233]
>100	–	92.7	63.9	–	–	CC(Nc1ncnc2[nH]cc(C#N)c12)c1cc2cccn2c(=O)n1-c1ccccc1 (stereo not shown) [Compound 121]
–	17	–	–	5	741	C[S+]([O-])c1c[nH]c2ncnc(N3CCC[C@H]3c3nn4ccc(Cl)c4c(=O)n3-c3ccccc3)c12 (stereo partly shown) [Compound 188]
–	1	–	–	0.3	13	CC(=O)c1cnc(N)nc1NC(C)c1cn2ccc(F)c2c(=O)n1-c1ccccc1 (single isomer, unassigned) [Compound 452]

The remaining lines, values behind:

Structure (SMILES)	PI3Kγ IH % @ 1 uM (p110γ) [%]	IC50 (p110γ) [nM]	PI3Kδ IH % @ 1 uM (p110δ/p85α) [%]	PI3Kβ IH % @ 1 uM (p110β/p85α) [%]	IC50 (p110δ/p85α) [nM]	IC50 (p110β/p85α) [nM]
N#Cc1cccc(-n2c([C@@H]3CCCN3c3ncnc4[nH]cc(C#N)c34)nn3cccc3c2=O)c1 [Compound 23]	81.9	273	99.2	36.9	–	–
O=c1c2cccn2nc([C@@H]2CCCN2c2ncnc3[nH]cnc23)n1-c1cccc(F)c1 [Compound 13]	71.9	477	97.8	18.0	–	–
Nc1nc(N2CCC[C@H]2c2nn3cccc3c(=O)n2-c2ccccc2)c2cn[nH]c2n1 [Compound 11]	24.4	–	22.9	−7.7	–	–
CC(Nc1ncnc2[nH]cc(C#N)c12)c1cn2ccc(Cl)c2c(=O)n1-c1cccc(F)c1 (stereo not shown) [Compound 76]	–	10	–	82.0	4	–
COc1cccc(-n2c([C@@H]3CCCN3c3ncnc4[nH]cc(C#N)c34)nn3cccc3c2=O)c1 [Compound 9]	83.8	–	>100	31.1	–	–
O=c1c2cccn2nc([C@H]2CCCN2c2ncnc3[nH]cnc23)n1-c1ccccc1 [Compound 24]	14.1	–	17.7	8.3	–	–
N#Cc1c[nH]c2ncnc(N3CCC[C@@H]3c3nn4cccc4c(=O)n3-c3ccccc3)c12 [Compound 22]	21.2	–	7.7	8.9	–	–
CC(Nc1ncnc(N)c1C#N)c1cn2ccc(Cl)c2c(=O)n1-c1cc(F)cc(F)c1 (stereo not shown) [Compound 81]	–	70	>100	79.0	6	–
N#Cc1c[nH]c2ncnc(N3CCC[C@H]3c3nn4c(F)ccc4c(=O)[nH]3)c12 [Compound 106, (S)-4-(2-(7-fluoro-4-oxo-3,4-dihydropyrrolo[1,2-f][1,2,4]triazin-2-yl)pyrrolidin-1-yl)-7H-pyrrolo[2,3-d]pyrimidine-5-carbonitrile]	41.1	–	86.8	61.9	232	–
O=c1c2cccn2nc([C@@H]2CCCN2c2ncnc3[nH]cnc23)n1-c1cccc(Cl)c1 [Compound 17]	60.3	–	100	9.2	–	–
COc1cccc(-n2c([C@@H]3CCCN3c3ncnc(N)c3Cl)nn3cccc3c2=O)c1 [Compound 21]	30.4	–	94.3	−1.3	–	–
O=c1c2cccn2nc([C@@H]2CCCN2c2ncnc3[nH]nc(Br)c23)n1-c1ccccc1 [Compound 12]	27.9	–	80.6	23.1	158	–
N#Cc1c[nH]c2ncnc(N3CCC[C@H]3c3nn4cccc4c(=O)n3-c3cccc(F)c3)c12 [Compound 16]	87.3	85	100	25.1	–	–
Nc1ncnc(N2CCC[C@H]2c2nn3cccc3c(=O)n2-c2ccccc2)c1Cl [Compound 18]	53.2	–	100	30.9	–	–
COc1cccc(-n2c([C@@H]3CCCN3c3ncnc(N)c3C#N)nn3cccc3c2=O)c1 [Compound 19]	75.7	287	100	24.0	–	–
Nc1nc(N2CCC[C@H]2c2nn3cccc3c(=O)n2-c2ccccc2)c2cc[nH]c2n1 [Compound 10]	59.5	–	60.4	6.0	–	–
O=c1c2cccn2nc([C@@H]2CCCN2c2ncnc3[nH]cnc23)n1-c1ccc(F)cc1 [Compound 14]	78.1	265	90.7	56.9	–	–
COc1cccc(-n2c([C@@H]3CCCC3c3ncnc4[nH]cnc34)nn3cccc3c2=O)c1 (stereo partly shown) [Compound 20]	68.6	–	97.4	7.5	–	–
